Values joined by “and” are separate entries in the source; they are usually repeats but may differ in a detail not shown here. Equal entries are not always repeated.
What was measured:
[1] = Tissue distribution and metabolism: polyamine content of kidney, liver and pancreas via HPLC; format: in vivo, Female CD-1 mice; settings: DEHSPM 18.6 mg/kg/d IP x 5 d
Protocol: The tissue distribution and metabolism of DEHSPM, (HO)2DEHSPM HCl Salt and (HO)2DEHSPM Mesylate Salt in various organs were evaluated utilizing the following protocol:
Tissue Distribution and Metabolism of DEHSPM, (HO)2DEHSPM HCl Salt and (HO)2DEHSPM Mesylate Salt
• 1) DEHSPM, (HO)2DEHSPM HCl salt, and (HO)2DEHSPM mesylate salt were dissolved in sterile normal saline; the pH was not adjusted. • 2) Female CD-1 mice were given the drugs at equimolar dosages intraperitoneally once daily for 5 days. • 3) The animals, n=3-4 per group, were euthanized 4, 8, or 24 h post-last dose. • 4) The kidney, liver, and pancreas were removed and assessed for their polyamine content via HPLC analysis. • 5) The polyamine concentration data (mean±STD) are expressed as nmol/g wet weight of tissue. SPM, spermine; SPD, spermidine; PUT, putrescine; N.D., not determined. • 6) A one-tailed t test assuming unequal variance was performed on the tissue polyamine concentration data. A value of p<0.05 was considered significant.

[2] = mice, three weeks after a seven day schedule; cited from earlier work

- DEHSPM concentration ([1]; kidney, 4 h post-last dose): 428 ± 95 nmol/g wet weight of tissue
- DEHSPM concentration ([1]; kidney, 8 h post-last dose): 425 ± 82 nmol/g wet weight of tissue
- DEHSPM concentration ([1]; kidney, 24 h post-last dose): 260 ± 19 nmol/g wet weight of tissue
- DEHSPM concentration ([1]; liver, 4 h post-last dose): 148 ± 46 nmol/g wet weight of tissue
- DEHSPM concentration ([1]; liver, 8 h post-last dose): 144 ± 7 nmol/g wet weight of tissue
- DEHSPM concentration ([1]; liver, 24 h post-last dose): 79 ± 10 nmol/g wet weight of tissue
- DEHSPM concentration ([1]; pancreas, 4 h post-last dose): 330 ± 37 nmol/g wet weight of tissue
- DEHSPM concentration ([1]; pancreas, 8 h post-last dose): 339 ± 59 nmol/g wet weight of tissue
- DEHSPM concentration ([1]; pancreas, 24 h post-last dose): 284 ± 50 nmol/g wet weight of tissue
Structure (SMILES): CCNCCCCNCCCCNCCCCNCC [DEHSPM, Diethylhomospermine, reference compound]
- PUT concentration ([1]; kidney, 4 h post-last dose): 0 ± 0 nmol/g wet weight of tissue
- SPD concentration ([1]; kidney, 4 h post-last dose): 270 ± 61 nmol/g wet weight of tissue
- SPM concentration ([1]; kidney, 4 h post-last dose): 243 ± 49 nmol/g wet weight of tissue
- PUT concentration ([1]; kidney, 8 h post-last dose): 0 ± 0 nmol/g wet weight of tissue
- SPD concentration ([1]; kidney, 8 h post-last dose): 159 ± 4 nmol/g wet weight of tissue
- SPM concentration ([1]; kidney, 8 h post-last dose): 240 ± 52 nmol/g wet weight of tissue
- PUT concentration ([1]; kidney, 24 h post-last dose): 0 ± 0 nmol/g wet weight of tissue
- SPD concentration ([1]; kidney, 24 h post-last dose): 150 ± 37 nmol/g wet weight of tissue
- SPM concentration ([1]; kidney, 24 h post-last dose): 223 ± 61 nmol/g wet weight of tissue
- PUT concentration ([1]; liver, 4 h post-last dose): 0 ± 0 nmol/g wet weight of tissue
- SPD concentration ([1]; liver, 4 h post-last dose): 540 ± 77 nmol/g wet weight of tissue
- SPM concentration ([1]; liver, 4 h post-last dose): 764 ± 49 nmol/g wet weight of tissue
- PUT concentration ([1]; liver, 8 h post-last dose): 0 ± 0 nmol/g wet weight of tissue
- SPD concentration ([1]; liver, 8 h post-last dose): 710 nmol/g wet weight of tissue and 710 ± 132 nmol/g wet weight of tissue
- SPM concentration ([1]; liver, 8 h post-last dose): 899 ± 40 nmol/g wet weight of tissue
- PUT concentration ([1]; liver, 24 h post-last dose): 21 ± 15 nmol/g wet weight of tissue
- SPD concentration ([1]; liver, 24 h post-last dose): 578 nmol/g wet weight of tissue and 578 ± 150 nmol/g wet weight of tissue
- SPM concentration ([1]; liver, 24 h post-last dose): 809 ± 45 nmol/g wet weight of tissue
- PUT concentration ([1]; pancreas, 4 h post-last dose): 43 ± 10 nmol/g wet weight of tissue
- SPD concentration ([1]; pancreas, 4 h post-last dose): 6054 nmol/g wet weight of tissue and 6054 ± 878 nmol/g wet weight of tissue
- SPM concentration ([1]; pancreas, 4 h post-last dose): 1000 nmol/g wet weight of tissue and 1000 ± 124 nmol/g wet weight of tissue
- PUT concentration ([1]; pancreas, 8 h post-last dose): 66 ± 33 nmol/g wet weight of tissue
- SPD concentration ([1]; pancreas, 8 h post-last dose): 5789 nmol/g wet weight of tissue and 5789 ± 339 nmol/g wet weight of tissue
- SPM concentration ([1]; pancreas, 8 h post-last dose): 1033 nmol/g wet weight of tissue and 1033 ± 290 nmol/g wet weight of tissue
- PUT concentration ([1]; pancreas, 24 h post-last dose): 62 ± 29 nmol/g wet weight of tissue
- SPD concentration ([1]; pancreas, 24 h post-last dose): 5807 nmol/g wet weight of tissue and 5807 ± 262 nmol/g wet weight of tissue
- SPM concentration ([1]; pancreas, 24 h post-last dose): 1146 nmol/g wet weight of tissue and 1146 ± 107 nmol/g wet weight of tissue
- drug administered remaining in the liver and kidney as drug or metabolites [2]: 35%
- drug remaining in the animal in the form of HSPM [2]: 90%

Source: US20130137772A1, “HYDROXYPOLYAMINE SALTS” (priority 2011, published 2013)
